Source: patent US20060045891A1, “Density-matched suspension vehicles and pharmaceutical suspensions” (priority 2004, published 2006)

Experiment: Suspension of spheres: sphere placed in the vehicle and centrifuged
Format: physicochemical
Conditions: Lucite sphere density 1.20 g/cc; two minutes at 1000 rpm; no calcium carbonate particles
Description: Precipitated calcium carbonate particles (density 2.71 g/cc and average particle size 0.7 microns) were mixed with Vitamin E (density 0.95 g/cc) at a particle weight fraction of 0.333 (15% by volume of dense particles) to create a suspending vehicle. According to equation (1), the density of the suspending vehicle is 1.21 g/cc.
A small Delrin sphere (density 1.35 g/cc, 3/32″ diameter) was placed in a first container holding the suspending vehicle.
A Lucite sphere (density 1.20 g/cc, 3/32″ diameter) was placed in a second container holding the suspending vehicle and centrifuged at 2000 rpm for 2 minutes.
In contrast, the Lucite sphere was placed in a third container of pure Vitamin E only and centrifuged for two minutes at 1000 rpm.

Vitamin E
behaviour of Lucite sphere in the vehicle after centrifuging: sank to the bottom of the container in less than one minute
